Values of other authors, collected in US20140088058A1 (PARTHENOGEN SAGL, priority 2011, published 2014).

Key:
[1] = test system: LH surge
[2] = test system: FSH and LH plasma concentration
[3] = test system: gonadotrophin surge, oocytes collected; details: 40 mg oral route since early days of FSH administration
[4] = test system: infarct formation

## CC(=O)[C@H]1CC[C@H]2[C@@H]3CCC4=CC(=O)CC[C@]4(C)[C@H]3CC[C@]12C [progesterone]
[1]; after mifepristone 1 mg per os, progesterone i.m. 2.5 mg bid day 1, 5 mg bid day 2
  women with gonadotrophin surge within one day from first progesterone injection: 5 out of 6
[2]; 10 mg i.m. in mid- or late-follicular phase
  effect on plasma FSH and LH concentration: acute increase

## CC#C[C@]1(O)CC[C@H]2[C@@H]3CCC4=CC(=O)CCC4=C3[C@@H](c3ccc(N(C)C)cc3)C[C@@]21C [mifepristone, 17β-hydroxyl-11β-(4-dimethyl-aminophenyl-1)-17α-(prop-1-ynyl)-estra-4,9-diene-3-one]
DMSO
  solubility in dimethyl sulfoxide (DMSO): more than 20 mg/ml
ethanol
  solubility in ethanol: more than 20 mg/ml
[1]; 1 mg per os for 5 days, from dominant follicle 14-16 mm
  circulating levels of FSH and LH: remained flat
[1]; 1 mg per os for 5 days, placebo surge within 1 to 3 days
  LH surge timing versus placebo: delayed in all treated women
[2]; 10 or 100 mg per os
  effect on FSH and LH plasma concentration: reduction
[3]
  gonadotrophin surge: did not have a gonadotrophin surge

## NC(=O)c1ccc[n+]([C@@H]2O[C@H](COP(=O)([O-])OP(=O)(O)OC[C@H]3O[C@@H](n4cnc5c(N)ncnc54)[C@H](O)[C@@H]3O)[C@@H](O)[C@H]2O)c1 [NAD+]
[4]; given by injection
  effect following rat brain ischemia: ineffective
[4]; nasal route, rat brain ischemia
  reduction of infarct formation: 90%
